# According to PubChem BioAssay AID248 (DTP/NCI, 2004):
# “And” between values parts separate entries of the source, which are not always exact repeats. Equal entries are not always repeated. Toxic doses and inconclusive results are not listed.
# System: L1210 leukemia ip in BDF1 mice, survival T/C
# Test: NCI In Vivo Anticancer Drug Screen. Data for tumor model L1210 Leukemia (intraperitoneal) in B6D2F1 (BDF1) mice
# Conditions: higher = longer survival
# Method in brief: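 Transplantable tumor model; survival measured in treated vs vehicle control mice. Value = treated/control.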
# [1] = endpoint: mean survival time, dose: 100.0 mg/kg/injection, schedule: Q01DX009 (ip), vehicle: Klucel (hydroxypropylcellulose) (HPC)
# [2] = endpoint: mean survival time, dose: 200.0 mg/kg/injection, schedule: Q01DX009 (ip), vehicle: Klucel (hydroxypropylcellulose) (HPC)
# [3] = endpoint: mean survival time, dose: 6.25 mg/kg/injection, schedule: Q01DX009 (ip), vehicle: saline
# [4] = endpoint: mean survival time, dose: 12.5 mg/kg/injection, schedule: Q01DX009 (ip), vehicle: saline
# [5] = endpoint: mean survival time, dose: 25.0 mg/kg/injection, schedule: Q01DX001 (ip), vehicle: saline
# [6] = endpoint: mean survival time, dose: 100.0 mg/kg/injection, schedule: Q01DX001 (ip), vehicle: saline
# [7] = endpoint: mean survival time, dose: 200.0 mg/kg/injection, schedule: Q01DX001 (ip), vehicle: saline
# [8] = endpoint: mean survival time, dose: 50.0 mg/kg/injection, schedule: Q01DX001 (ip), vehicle: saline
smiles,measurement,setting,value
CCC(/C=C1\Oc2ccc(-c3ccccc3)cc2N1CC)=C\c1oc2ccc(-c3ccccc3)cc2[n+]1CC,T/C,"endpoint: mean survival time, dose: 0.1 mg/kg/injection, schedule: Q01DX009 (ip), vehicle: other",102 % of control
same,T/C,"endpoint: mean survival time, dose: 0.3 mg/kg/injection, schedule: Q01DX009 (ip), vehicle: other",110 % of control
same,T/C,"endpoint: mean survival time, dose: 0.6 mg/kg/injection, schedule: Q01DX009 (ip), vehicle: other",116 % of control
same,T/C,"endpoint: mean survival time, dose: 0.62 mg/kg/injection, schedule: Q01DX009 (ip), vehicle: saline",111 % of control
same,T/C,"endpoint: mean survival time, dose: 1.2 mg/kg/injection, schedule: Q01DX009 (ip), vehicle: other",116 % of control
same,T/C,"endpoint: mean survival time, dose: 1.25 mg/kg/injection, schedule: Q01DX009 (ip), vehicle: saline",108 % of control
same,T/C,"endpoint: mean survival time, dose: 2.5 mg/kg/injection, schedule: Q01DX009 (ip), vehicle: saline",114 % of control
same,T/C,"endpoint: mean survival time, dose: 2.6 mg/kg/injection, schedule: Q01DX009 (ip), vehicle: other",122 % of control
same,T/C,"endpoint: mean survival time, dose: 5.0 mg/kg/injection, schedule: Q01DX009 (ip), vehicle: saline",103 % of control
same,T/C,"endpoint: mean survival time, dose: 19.0 mg/kg/injection, schedule: Q01DX001 (ip), vehicle: other",109 % of control
Cc1ccccc1C(O)C(Cl)(Cl)Cl (stereo not drawn),T/C,"endpoint: median survival time, dose: 50.0 mg/kg/injection, schedule: Q04DX003 (ip), vehicle: Klucel (hydroxypropylcellulose) (HPC)",118 % of control
same,T/C,"endpoint: median survival time, dose: 200.0 mg/kg/injection, schedule: Q04DX003 (ip), vehicle: Klucel (hydroxypropylcellulose) (HPC)",157 % of control
same,T/C,"endpoint: median survival time, dose: 400.0 mg/kg/injection, schedule: Q04DX003 (ip), vehicle: Klucel (hydroxypropylcellulose) (HPC)",204 % of control
O=C(NCc1ccccc1)C(Cc1ccccc1)(Cc1ccccc1)C(=O)NCc1ccccc1,T/C,"endpoint: mean survival time, dose: 100.0 mg/kg/injection, schedule: Q01DX001 (ip), vehicle: carboxymethylcellulose (CMC)",92 % of control
same,T/C,"endpoint: mean survival time, dose: 200.0 mg/kg/injection, schedule: Q01DX001 (ip), vehicle: carboxymethylcellulose (CMC)",90 % of control
same,T/C,"endpoint: mean survival time, dose: 400.0 mg/kg/injection, schedule: Q01DX001 (ip), vehicle: carboxymethylcellulose (CMC)",92 % of control
CC(C)NC(C)C,T/C,"endpoint: mean survival time, dose: 100.0 mg/kg/injection, schedule: Q01DX001 (ip), vehicle: Klucel (hydroxypropylcellulose) (HPC)",104 % of control
same,T/C,"endpoint: mean survival time, dose: 200.0 mg/kg/injection, schedule: Q01DX001 (ip), vehicle: Klucel (hydroxypropylcellulose) (HPC)",101 % of control
same,T/C,"endpoint: mean survival time, dose: 400.0 mg/kg/injection, schedule: Q01DX001 (ip), vehicle: Klucel (hydroxypropylcellulose) (HPC)",107 % of control
CCCCC(=O)OC1CC2CCC1(C)C2(C)C (stereo not drawn),T/C,[1],102 % of control
same,T/C,"endpoint: mean survival time, dose: 100.0 mg/kg/injection, schedule: Q04DX003 (ip), vehicle: Klucel (hydroxypropylcellulose) (HPC)",96 % of control
same,T/C,[2],102 % of control
same,T/C,"endpoint: mean survival time, dose: 200.0 mg/kg/injection, schedule: Q04DX003 (ip), vehicle: Klucel (hydroxypropylcellulose) (HPC)",96 % of control
same,T/C,"endpoint: mean survival time, dose: 400.0 mg/kg/injection, schedule: Q01DX009 (ip), vehicle: Klucel (hydroxypropylcellulose) (HPC)",104 % of control
same,T/C,"endpoint: mean survival time, dose: 400.0 mg/kg/injection, schedule: Q04DX003 (ip), vehicle: Klucel (hydroxypropylcellulose) (HPC)",100 % of control
C1CN(P2(N3CC3)=NP(N3CC3)(N3CC3)=NP(N3CC3)(N3CC3)=N2)CCO1 (stereo not drawn),T/C,[3],116 % of control and 119 % of control
same,T/C,[4],120 % of control
same,T/C,[5],114 % of control and 119 % of control
same,T/C,"endpoint: mean survival time, dose: 25.0 mg/kg/injection, schedule: Q01DX009 (ip), vehicle: saline",156 % of control and 164 % of control
same,T/C,"endpoint: mean survival time, dose: 50.0 mg/kg/injection, schedule: Q01DX009 (ip), vehicle: saline",99 % of control and 104 % of control and 87 % of control
same,T/C,[6],181 % of control and 185 % of control
same,T/C,[7],89 % of control
Cc1c2cccc(Sc3ccccc3)c2c2c3c(cccc13)[S+](c1ccccc1)C2 (stereo not drawn),T/C,"endpoint: mean survival time, dose: 1.56 mg/kg/injection, schedule: Q01DX009 (ip), vehicle: saline",104 % of control
same,T/C,"endpoint: mean survival time, dose: 3.12 mg/kg/injection, schedule: Q01DX009 (ip), vehicle: saline",101 % of control
same,T/C,[3],105 % of control
same,T/C,"endpoint: mean survival time, dose: 12.5 mg/kg/injection, schedule: Q01DX001 (ip), vehicle: saline with Tween-80",97 % of control
same,T/C,"endpoint: mean survival time, dose: 12.5 mg/kg/injection, schedule: Q01DX001 (ip), vehicle: saline",100 % of control
same,T/C,[4],91 % of control
same,T/C,[5],93 % of control
same,T/C,"endpoint: mean survival time, dose: 50.0 mg/kg/injection, schedule: Q01DX001 (ip), vehicle: saline with Tween-80",95 % of control
same,T/C,[8],86 % of control
C=CCN(CC=C)c1ccc(N(CC)CC)cc1,T/C,[1],86 % of control
same,T/C,"endpoint: mean survival time, dose: 100.0 mg/kg/injection, schedule: Q04DX003 (ip), vehicle: saline",97 % of control
same,T/C,[2],86 % of control
same,T/C,"endpoint: mean survival time, dose: 200.0 mg/kg/injection, schedule: Q04DX003 (ip), vehicle: saline",105 % of control
same,T/C,"endpoint: mean survival time, dose: 400.0 mg/kg/injection, schedule: Q04DX003 (ip), vehicle: saline",105 % of control
CCCCCCCC(=O)N1CCCCC1C (stereo not drawn),T/C,"endpoint: mean survival time, dose: 100.0 mg/kg/injection, schedule: Q04DX002 (ip), vehicle: Klucel (hydroxypropylcellulose) (HPC)",103 % of control
same,T/C,"endpoint: mean survival time, dose: 200.0 mg/kg/injection, schedule: Q04DX002 (ip), vehicle: Klucel (hydroxypropylcellulose) (HPC)",103 % of control
same,T/C,"endpoint: mean survival time, dose: 400.0 mg/kg/injection, schedule: Q04DX002 (ip), vehicle: Klucel (hydroxypropylcellulose) (HPC)",98 % of control
NC(=S)N/N=C/c1cc(=O)[nH]c(=O)[nH]1,T/C,[8],93 % of control
same,T/C,[6],95 % of control
same,T/C,[7],98 % of control
same,T/C,"endpoint: mean survival time, dose: 400.0 mg/kg/injection, schedule: Q01DX001 (ip), vehicle: saline",95 % of control
